According to patent US7122666B2, “Heteroaryl-substituted pyrrole derivatives, their preparation and their therapeutic uses” (Sankyo Company, Limited, priority 1999, dated 2006):

Experiments:
[1] = tested on: TNFα production in human whole blood; experiment: Inhibition of the production of TNFα in vitro in human whole blood (Test Examples 1 and 1′); format: cell-based; settings: Table 7′, lipopolysaccharide 10 μg/ml, 6 hours at 37° C., plasma TNFα by ELISA, least squares, read-out: Inhibitory Effect on TNFα Production (in vitro) IC50
Summary of the method: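 Heparinized whole blood from healthy adult volunteers was pre-mixed with compound in DMSO and stimulated with E. coli O26:B6 LPS (10 μg/ml final) for 6 h at 37° C, 5% CO2. Plasma IL-1β and TNFα were measured by ELISA, and IC50 (μM) was fitted by least squares from cytokine levels with and without compound.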

[2] = tested on: adjuvant-induced arthritis; experiment: Activity in preventing the development of adjuvant-induced arthritis in vivo (Test Examples 4 and 4′); settings: Table 10′; Lewis rat, oral once a day from day 0 to day 20, inhibition of swelling of injected foot on day 21
Experimental: The test was performed according to the method described by Winder et al. (Arthritis Rheum., 12, 472–482, 1969). Heat-killed dried Mycobacterium butyricum (Difco Laboratories, Lot 679123) was ground on an agate mortar, and was then suspended in dry-sterilised liquid paraffin (first grade, Wako Pure Chemical Industries, Ltd.) to make a 2 ml suspension. The resulting suspension was then sonicated and used as an adjuvant. Arthritis was induced by the intradermal injection of the adjuvant (100 μg of heat killed dried bacterium/0.05 ml of paraffin/paw) into the heel of the right hind paw of a Lewis rat (male, age 8 weeks, Japan Charles River). […] The volumes of the swollen feet (adjuvant-injected right hind foot volume—non-injected left hind foot volume) were calculated. The percent inhibition of swelling of the injected foot of the treated animals as compared to that of the control animals on day 21 was calculated as follows. […] ID50 values were calculated using this curve. […] […]

CC1C[C@H]2C=C(c3c[nH]c(-c4ccc(F)cc4)c3-c3ccncc3)CCN2C1 (stereo partly drawn) [Example 16′, 2-(4-Fluorophenyl)-4-[(8aS)-2-methyl-1,2,3,5,6,8a-hexahydroindolizin-7-yl]-3-(pyridin-4-yl)1H-pyrrole]
IC50 [1]: 2.2 nM | Activity in Preventing the Development of Adjuvant-Induced Arthritis in vivo IC50 [2]: 1.2 mg/kg
